In brackets after ≈: the same amount, converted by molar mass.
Columns and labels:
patients with PFIC = assay: Pooled PEDFIC 1/2: relationships between changes in autotaxin, pruritus and serum bile acids (weeks 25-48); type: in vivo, human
Procedure: Phase 3 study data of 77 patients treated with odevisibat was pooled from the PEDFIC 1 and PEDFIC 2 studies. In PEDFIC 1, patients received placebo or odevixibat 40 or 120 μg/kg/day for 24 weeks; in PEFFIC 2, patients were enrolled in an ongoing extension study, with all patients receiving 120 μg/kg/day. At the data cutoff, 77 patients had received odevixibat. The median length of odevixibat treatment was 37 weeks, with a range of 1-108 weeks. Most patients (88%) were continuing on treatment. Characteristics of patients with available data at weeks 25-48 who were included in the current analyses were generally similar to the overall study population.
Autotaxin was assessed prior to treatment and throughout PEDFIC 1 and PEDFIC 2. Caregivers evaluated patients' pruritus using the validated PRUCISION scale, where scores range from 0 to 4; higher scores indicate worse symptoms. Serum bile acid measurements were taken at all study visits.
Relationships between changes from baseline to weeks 25-48 in autotaxin, pruritus, and serum bile acid levels were assessed as post hoc analyses. Changes from baseline were summarized descriptively. Pearson coefficients and P values were calculated for correlations. Responders were defined as ≥70% reduction from baseline in serum bile acids or serum bile acids ≤70 μmol/L at last assessment up to week 48 and/or pruritus score reduction of ≥1 point from baseline based on last available monthly or 12-week interval score up to week 48.
Values are based on last assessment up to week 48. For serum bile acids, this was the average value from weeks 46 and 48 when available; otherwise, the last available assessment in the interval was used. For pruritus, last monthly score was used when available; otherwise, the score from the last 12 weeks was used. For autotaxin, the last assessment within the interval was used.

children with PFIC = assay: Pooled analysis of PEDFIC 1 and PEDFIC 2 (up to 48 weeks): safety; type: in vivo, human
Text: This example describes key outcomes with odevixibat in children with PFIC1 (familial intrahepatic cholestasis 1 [FIC1] deficiency) or PFIC2 ((bile salt export pump [BSEP] deficiency) based on pooled analysis of data from the phase 3 PEDFIC 1 (P1; NCT03566238) and PEDFIC 2 (P2; NCT03659916) studies. This pooled analysis covers up to 48 weeks of odevixibat treatment from P1 and through the planned P2 interim data cut. The following outcomes are described: change in serum bile acids (sBAs), change in pruritus score (measured using the PRUCISION scale; range: 0-4), evaluation of growth and sleep parameters, and safety monitoring. Mean changes in autotaxin (linked to cholestatic pruritus intensity) and plasma 7α-hydroxy-4-cholesten-3-one (p-C4; marker of bile acid synthesis) levels were also summarized.

[1] = Solubility of odevixibat in water; type: physicochemical; settings: pH 7, 37° C.
Text: It is desirable that the use of organic solvents in the preparation of the formulation is avoided. In some embodiments, water is used as the solvent for the preparation of the formulation. […] Because of this low solubility in water, aqueous suspensions of odevixibat can contain larger agglomerates of odevixibat, which may lead to an uneven distribution of the active pharmaceutical ingredient on the cores, i.e. the cores may contain different amounts of odevixibat, which in turn impacts dose uniformity. Accordingly, in some embodiments, the aqueous suspension of odevixibat is homogeneous. In some embodiments, a homogeneous aqueous suspension of odevixibat is sprayed onto the cores.

[2] = patients analyzed in correlation analyses, N=44

**Q.** For `CCCCC1(CCCC)CN(c2ccccc2)c2cc(SC)c(OCC(=O)N[C@@H](C(=O)N[C@@H](CC)C(=O)O)c3ccc(O)cc3)cc2S(=O)(=O)N1` [Odevixibat, 1,1-dioxo-3,3-dibutyl-5-phenyl-7-methylthio-8-(N-{(R)-α-[N-((S)-1-carboxypropyl)carbamoyl]-4-hydroxybenzyl}carbamoylmethoxy)-2,3,4,5-tetrahydro-1,2,5-benzothiadiazepine], which “Autotaxin, percentage change from baseline to weeks 25-48, mean (SE)” value (patients with PFIC; patients analyzed in correlation analyses, N=33) is on record?
**A.** −50% (6%)

**Q.** What about the “Autotaxin, change from baseline to weeks 25-48, mean (SE)” value (patients with PFIC; patients analyzed in correlation analyses, N=33, last assessment up to week 48) of the same compound?
**A.** −1696 (266) ng/ml

**Q.** What about the “Serum bile acids, change from baseline to weeks 25-48, mean (SE)” value (patients with PFIC; [2]) of the same compound?
**A.** −140 (25) μmol/L

**Q.** What about the “Serum bile acids, percentage change from baseline to weeks 25-48, mean (SE)” value (patients with PFIC; [2]) of the same compound?
**A.** −49% (8%)

**Q.** And the “Pruritus score (range, 0-4), change from baseline to weeks 25-48, mean (SE)” value (patients with PFIC; patients analyzed in correlation analyses, N=44, PRUCISION scale)?
**A.** −1.4 (0.2)

**Q.** And the “effect on autotaxin, pruritus and serum bile acids” value (patients with PFIC; patients with PFIC)?
**A.** reduced autotaxin, pruritus, and serum bile acids

**Q.** And the “patients with drug-related TEAEs” value (children with PFIC; pooled P1+P2, 32 of 77 patients)?
**A.** 42%

**Q.** And the patients who experienced any TEAE (children with PFIC; pooled P1+P2, 61 of 77 patients)?
**A.** 79%

**Q.** What about the “drug-related serious TEAEs” value (children with PFIC; pooled P1+P2, 77 patients) of the same compound?
**A.** no drug-related serious TEAEs were reported

**Q.** And the “patients reporting severe TEAEs” value (children with PFIC; pooled P1+P2, 77 patients)?
**A.** Eight

**Q.** And the “patients with TEAEs leading to treatment discontinuation” value (children with PFIC; pooled P1+P2, 77 patients)?
**A.** Four

**Q.** And the “incidence of TEAEs” value (children with PFIC; pooled P1+P2, BSEP subtype 1)?
**A.** 77%

**Q.** And the “incidence of TEAEs” value (children with PFIC; pooled P1+P2, BSEP subtype 2)?
**A.** 86%

**Q.** What about the “incidence of TEAEs” value (children with PFIC; pooled P1+P2, patients with PFIC1, placebo in P1 85%) of the same compound?
**A.** 80%

**Q.** And the “incidence of TEAEs” value (children with PFIC; pooled P1+P2, patients with PFIC2)?
**A.** 80%

**Q.** And the tolerability (children with PFIC; pooled P1+P2, treatment for up to 48 weeks)?
**A.** well tolerated

**Q.** And the solubility [1]?
**A.** ~30 µg/mL (≈ 40.5 µM)
